From patent publication US6001810A, “Methods for treating retroviral infection” (Eli Lilly and Company, priority 1990, dated 1999)
≈ marks a conversion by molar mass, not a printed value. Where “and” joins values, the source holds several entries; their conditions need not be identical. Equal values may be shown once. Non-standard residues stand in square brackets, D forms with d. Residues, ends and D or L forms follow the SMILES beside them. Phe(4-NH2) = Nc1ccc(C[C@H](N)C(=O)O)cc1; Sta = CC(C)C[C@H](N)[C@@H](O)CC(=O)O

Key:
[1] = tested on: complex of Friend's Spleen-Forcus Virus (Fr. SFFV) and Friend's Murine Leukemia Virus (F. MLV); experiment: In vivo inhibition of Friend Virus Complex in DBA/2 mice; design: Spleen / Inhibition % (spleen): dose or concentration left out as unconfirmed; conditions: individual infected DBA/2 mice
Procedure: Formulations of peptides P-9 and P-7 were prepared for injection into DBA/2 mice. The formulations were prepared by dissolving the purified peptides in Emulphor™ EL620 which was purchased from the GAF Chemical Corporation, 1361 Alps Row, Wayne, N.J., 07470. The drugs were injected intraperitoneally one hour before the mice were infected with a complex of Friend's Spleen-Forcus Virus (Fr. SFFV) and Friend's Murine Leukemia Virus (F. MLV). These viruses ordinarily cause polycythermia (elevated levels of red blood cells) and splenomegaly (enlargement of spleen) within two to three week post-infection. The mice were injected twice daily with the inhibitor formulation for twenty days after the infection.
*Drugs were dissolved in Emulphor ™, injected IP one hour before
infection, then twice daily for 20 days.
^a Titers of Fr.MLV in the spleens (supernatents of 10% homogenates)
were determined by XC plaque assay.

[2] = tested on: Mo-MuLV; experiment: Moloney Murine Leukemia Virus Assay, CPE inhibition in SC-1/XC cells; format: cell-based; design: key: 4+(>90%); 3+(>60%); 2+(>40%); 1+(>20%); -(Negative)
Procedure: (§1) About 3 to 5×10^3 SC-1 cells (available from the American Type Culture Collection, Rockville, Md. under the accession number ATCC CRL-1404) per well of a 96-well microtiter plate were seeded in minimal essential medium supplemented with 5% fetal bovine serum, penicillin (150 U/ml), Streptomycin (150 μg/ml) and polybrene (2 μg/ml), then infected with Mo-MuLV (Multiplicity of Infection=10 PFU/cell) the next day. The virus was allowed to adsorb to the cells for 1 hour, then medium containing serial dilutions of P-7, P-9 or medium alone was added to the cells. Pepstatin A ([…]-Val-Val-Statine-Ala-Statine) and AZT (3'-Azido-3'-deoxythymidine) were also added as controls. After incubation for 5 days (when cells were confluent) the SC-1 cells were UV irradiated for 10 seconds and 5 to 8×10^4 XC cells (ATCC CCL-165) per well were added. Generally, about two additional days of incubation were required to obtain full virus-induced cytopathic effect.

[3] = tested on: HTLV-IIIB strain of HIV-1; experiment: Inhibition of HIV-1 cytopathic effect in CEM cells (XTT); format: cell-based; conditions: for IC25 (concentration that reduced CPE by 25%): Table V first column
Procedure: (§2) Quantitative evaluation of the viral inhibition were performed on the T-cell lymphoblastoid cell lines MT-2 (Harada et al., 1985, Science 229:563-566) and CEM (Nara and Fischinger, 1988, Nature 332:469-470). The cells were infected with the HTLV-IIIB strain of HIV-1 from the supernatant fluid of infected human T-lymphocyte cell line H9 (Popovic, M. et al., 1984, Science 224:497-500). Each of these three cell lines are publicly available from the National Institutes of Health (NIH) AIDS Research and Reference Reagent Program. The H9/HTLC-IIIB cell line is available under catalogue number 231, while CEM cell line is available under catalogue number 117 and the MT-2 cell line is available under the catalogue number 237. MT-2 and CEM cells were grown in RPMI 1640 medium supplemented with 10% (v/v) fetal calf serum, 100 U/ml penicillin, 100 μg/ml streptomycin and 25 mM HEPEs buffer. H9 cells were grown in the same medium except 20% fetal calf serum was used. The peptides were diluted in the medium used for MT-2 and CEM cells. Cell cultures were maintained in disposable tissue culture labware at 37° C. in a humidified atmosphere of 5% CO2 in air.
(§3) The inhibitors were dissolved in DMSO at 40 mg/ml or sterile water at 2 mg/ml, then dilutions were made in medium. The dilutions were added to micro-titer plates in 100 μl/well aliquots so that the high drug concentration for each screen was 100 μg/ml after the addition of cells to the well.
(§4) Susceptible MT-2 and CEM cells were grown and the cell population determined by a trypan blue viable cell count. The desired total number of cells were placed in a sterile, disposable 50 ml conical centrifuge tube and virus was added to give an MOI (Multiplicity of Infection) of 0.03 TCID50 /cell (Tissue Culture Infectious Dose) on MT-2 cells and approximately 0.12 TCID50 /cell on CEM cells. Fresh medium was added to adjust the cell density to 1×10^5 cells/ml, then the virus-cell suspension was incubated at 37° C. for 1 to 2 hours until plating. Uninfected controls cell were prepared in the same manner but without the addition of virus. Infected and uninfected cells were added to plates in 100 μl/well aliquots to give a starting cell number of 1×10^4 cells/well. The plates were incubated for seven days in a humidified atmosphere of 5% CO2 in air.
Reagents for colorimetric evaluation of cell viability were prepared by mixing the tetrazolium reagent, XTT, and phenazine methosulfate (PMS) to final concentrations of 200 μg/ml and 0.02 mM, respectively. […] The plates were read with the sealers in place in a Vmax Plate Reader® at 450 nm and 650 nm. The cytopathic effect (CPE) and percentage of cell viability were then calculated. […]

[4] = tested on: MLV; experiment: MLV XC Plaque Reduction Assay - Virus Yield; format: cell-based, Murine Leukemia Virus
Procedure: as §1
The assay described above was also preferred to determine the virus yield. In this experiment, the supernatents were removed from the SC-1 cells four days after infection and tested for MLV titers, using the XC-plaque assay as previously described.

[5] = tested on: CEM cells; format: cell-based
Procedure: as §2, §3, §4
Reagents for colorimetric evaluation of cell viability were prepared by mixing the tetrazolium reagent, XTT, and phenazine methosulfate (PMS) to final concentrations of 200 μg/ml and 0.02 mM, respectively. Fifty microliters of the XTT-PMS solution was added to each well of the microtiter plates, then the plates were incubated in the CO2 incubator for another four hours. The lids were removed from the plates and replaced with adhesive plate sealers. The plates were read with the sealers in place in a Vmax Plate Reader® at 450 nm and 650 nm. The cytopathic effect (CPE) and percentage of cell viability were then calculated.
The activity and cytotoxicity of several other peptides were also assayed in CEM cells using the same procedure as described above. These assays also included toxicity and activity levels of both 25% and 50%.

[6] = tested on: MT-2 cells; format: cell-based
Procedure: as §2, §3, §4
(§5) Reagents for colorimetric evaluation of cell viability were prepared by mixing the tetrazolium reagent, XTT, and phenazine methosulfate (PMS) to final concentrations of 200 μg/ml and 0.02 mM, respectively. […] The plates were read with the sealers in place in a Vmax Plate Reader® at 450 nm and 650 nm. The cytopathic effect (CPE) and percentage of cell viability were then calculated.

[7] = tested on: HTLV-IIIB strain of HIV-1; experiment: Inhibition of HIV-1 cytopathic effect in MT-2 cells (XTT); format: cell-based; conditions: 7 days
Procedure: as §2, with “H9 cells were grown in the same medium except 20% fetal calf serum was used. The peptides were diluted in the medium used for MT-2 and CEM cells. Cell cultures were maintained in disposable tissue culture labware at 37° C. in a humidified atmosphere of 5% CO2 in air.” left out
Susceptible MT-2 and CEM cells were grown and the cell population determined by a trypan blue viable cell count. […]
as §5

**Q.** With `Cc1cn([C@H]2C[C@H](N=[N+]=[N-])[C@@H](CO)O2)c(=O)[nH]c1=O` [AZT, 3'-Azido-3'-deoxythymidine] as the molecule, how does the “Inhibiton % (virus titer)” value ([1]; 100 pg IP twice daily for 20 days) read?
**A.** The value was > 99% and 95%.

**Q.** What about the “Virus Titer (Fr.MLV in the spleens, XC plaque assay)” value ([1]; 100 pg IP twice daily for 20 days, supernatents of 10% homogenates) of the same molecule?
**A.** The value was 500 PFU/ml and 20,000 PFU/ml.

**Q.** What about the Spleen ([1]; IP one hour before infection, then twice daily for 20 days) of the same molecule?
**A.** The Spleen was 0.17 gm and 0.21 gm.

**Q.** And the “Inhibition % (spleen)” value ([1]; IP twice daily for 20 days)?
**A.** The value was 85% and 81%.

**Q.** What about the CPE inhibition score ([2]; .0004 μg/ml) of the same molecule?
**A.** The CPE inhibition score was “-”.

**Q.** And the CPE inhibition score ([2]; .0008 μg/ml)?
**A.** Its CPE inhibition score is “-”.

**Q.** What about the CPE inhibition score ([2]; .003 μg/ml) of the same molecule?
**A.** Its CPE inhibition score is 2+ (2+(>40%)).

**Q.** What about the CPE inhibition score ([2]; .006 μg/ml) of the same molecule?
**A.** Its CPE inhibition score is 3+ (3+(>60%)).

**Q.** And the CPE inhibition score ([2]; .012 μg/ml)?
**A.** Its CPE inhibition score is 4+ (4+(>90%)).

**Q.** And the CPE inhibition score ([2]; .015 μg/ml)?
**A.** Its CPE inhibition score is 1+ (1+(>20%)).

**Q.** And the CPE inhibition score ([2]; .025 μg/ml)?
**A.** Its CPE inhibition score is 4+ (4+(>90%)).

**Q.** And the CPE inhibition score ([2]; .05 μg/ml)?
**A.** Its CPE inhibition score is 4+ (4+(>90%)).

**Q.** What about the CPE inhibition score ([2]; .1 μg/ml) of the same molecule?
**A.** Its CPE inhibition score is 4+ (4+(>90%)).

**Q.** What about the CPE inhibition score ([2]; .2 μg/ml) of the same molecule?
**A.** The CPE inhibition score was 4+ (4+(>90%)).

**Q.** What about the IC50 ([3]; Human immunodeficiency virus 1, IIIB, CCRF-CEM, Table V, read-out: IC50 (concentration that reduced CPE by 50%)) of the same molecule?
**A.** Its IC50 is < 0.0032 µg/mL.

**Q.** What about the “IC25 (concentration that reduced CPE by 25%)” value [3] of the same molecule?
**A.** Its value is < 0.0032 µg/mL.

**Q.** What about the “Maximum inhibition reached (CPE)” value ([3]; inhibition decreased as drug concentration increased) of the same molecule?
**A.** The value was 60%.

**Q.** And the Yield ([4]; 3.125 ng/ml)?
**A.** The Yield was 2.9 × 10^4 PFU/ML.

**Q.** And the Yield ([4]; 6.25 ng/ml)?
**A.** Its Yield is 80 PFU/ML.

**Q.** What about the Yield ([4]; 12.5 ng/ml) of the same molecule?
**A.** Its Yield is < 10 PFU/ML.

**Q.** And the “% Inhibition (virus yield)” value ([4]; 25 ag/ml)?
**A.** Its value is > 99%.

**Q.** What about the Yield ([4]; 25 ag/ml) of the same molecule?
**A.** Its Yield is < 10 PFU/ML.

**Q.** And the inhibition at 0.003125 µg/mL ([4]; Murine leukemia virus, 3.125 ng/ml)?
**A.** The inhibition at 0.003125 µg/mL was 98%.

**Q.** What about the inhibition at 0.00625 µg/mL ([4]; Murine leukemia virus, 6.25 ng/ml) of the same molecule?
**A.** The inhibition at 0.00625 µg/mL was > 99%.

**Q.** And the inhibition at 0.0125 µg/mL ([4]; Murine leukemia virus, 12.5 ng/ml)?
**A.** The inhibition at 0.0125 µg/mL was > 99%.

**Q.** What about the “IC25 (Table V)” value [5] of the same molecule?
**A.** Its value is > 1.0 µg/mL.

**Q.** And the “TC50 (concentration that reduced cell viability by 50%)” value [5]?
**A.** Its value is > 1.0 µg/mL.

**Q.** `Nc1ccn([C@H]2CC[C@@H](CO)O2)c(=O)n1` [DDC, 2', 3Dideoxycytidine] was tested. Which “MTC50 (minimum cytotoxic drug concentration that reduces cell viability to 50%)” value [6] did it give?
**A.** Its value is > 10 µg/mL.

**Q.** And the “IC25 (concentration that reduced CPE by 25%)” value [3]?
**A.** Its value is 0.0032 µg/mL (≈ 0.0152 µM).

**Q.** What about the “IC25 (Table V)” value [5] of the same molecule?
**A.** The value was 0.04 µg/mL (≈ 0.189 µM).

**Q.** What about the “TC50 (concentration that reduced cell viability by 50%)” value [5] of the same molecule?
**A.** The value was 0.8 µg/mL (≈ 3.79 µM).

**Q.** And the “ID50 (minimum drug concentration that inhibited CPE by 50%)” value [7]?
**A.** Its value is 0.11 µg/mL and 0.10 µg/mL.

**Q.** `CC(C)C[C@H](NC(=O)C[C@H](O)[C@H](CC(C)C)NC(=O)[C@@H](NC(=O)[C@H](Cc1ccccc1)NC(=O)[C@@H]1CCCN1C(=O)[C@@H](N)Cc1c[nH]cn1)C(C)C)C(=O)N[C@@H](Cc1ccccc1)C(=O)N[C@@H](Cc1ccc(N)cc1)C(N)=O` [P-15, H-His Pro Phe Val Statine Leu Phe paF NH2] (H-HPFV[Sta]LF[Phe(4-NH2)]-NH2) was tested. Which “MTC50 (minimum cytotoxic drug concentration that reduces cell viability to 50%)” value [6] did it give?
**A.** The value was > 100 µg/mL.

**Q.** What about the “MTC50 (minimum cytotoxic drug concentration that reduces cell viability to 50%)” value [5] of the same molecule?
**A.** The value was > 100 µg/mL.
